ChEMBL document CHEMBL1201862, “PubChem BioAssay data set” (2004)
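Growth conditions: 96-well plates. Treatment: test compound, 48 hours, 5 concentrations. Analysis: linear interpolation between bracketing concentrations; unreached endpoints set to highest concentration. The concentration for 50% growth inhibition is given as GI50.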 Activity calls are given as the source filed them. No stated cut-off is given here; in the data, active = GI50 up to about 1.1 µM and inactive = higher.

Assays:
Assay in all cases: NCI-60 cell line screen, 48 h
EKVX = tested on: EKVX
SK-MEL-5 = tested on: SK-MEL-5
SF-295 = tested on: SF-295
OVCAR-5 = tested on: OVCAR-5
SW-620 = tested on: SW-620
A549 = tested on: A549
SN12C = tested on: SN12C
HCT-15 = tested on: HCT-15
NCI-H23 = tested on: NCI-H23
OVCAR-8 = tested on: OVCAR-8
MCF7 = tested on: MCF7
IGROV-1 = tested on: IGROV-1
U-251 = tested on: U-251
LOX IMVI = tested on: LOX IMVI
CAKI-1 = tested on: CAKI-1
UO-31 = tested on: UO-31
HCC 2998 = tested on: HCC 2998
COLO 205 = tested on: COLO 205
ACHN = tested on: ACHN
786-0 = tested on: 786-0

Row | Structure (SMILES) | GI50 (EKVX) | GI50 (SK-MEL-5) | GI50 (SF-295) | GI50 (OVCAR-5) | GI50 (SW-620) | GI50 (A549) | GI50 (SN12C) | GI50 (HCT-15) [µM] | GI50 (NCI-H23) | GI50 (OVCAR-8) | GI50 (MCF7) | GI50 (IGROV-1) | GI50 (U-251) | GI50 (LOX IMVI) | GI50 (CAKI-1) | GI50 (UO-31) | GI50 (HCC 2998) | GI50 (COLO 205) | GI50 (ACHN) | GI50 (786-0)
1 | CC1C(=O)C(C)C(c2cccs2)N(N=O)C1c1cccs1 (stereo not given) | > 100 µM (inactive) | > 100 µM (inactive) | > 100 µM (inactive) | > 100 µM (inactive) | > 100 µM (inactive) | > 100 µM (inactive) | > 100 µM (inactive) | > 100 | > 100 µM (inactive) | > 100 µM (inactive) | > 100 µM (inactive) | > 100 µM (inactive) | > 100 µM (inactive) | > 100 µM (inactive) | > 100 µM (inactive) | > 100 µM (inactive) | > 100 µM (inactive) | > 100 µM (inactive) |  | 
2 | O=[N+]([O-])c1ccc(-c2nc3cc([N+](=O)[O-])ccc3[nH]2)cc1 | 39.3 µM (inactive) | 16.8 µM (inactive) | 20 µM (inactive) |  | 41.3 µM (inactive) | 15.1 µM (inactive) | 23.9 µM (inactive) | 34.9 | 21.4 µM (inactive) | 22.4 µM (inactive) | 31 µM (inactive) | 30.5 µM (inactive) | 25.4 µM (inactive) | 26.5 µM (inactive) | 32.7 µM (inactive) | 7.66 µM (inactive) | 50.2 µM (inactive) | 14.3 µM (inactive) | 31 µM (inactive) | 32.1 µM (inactive)
3 | COC(=O)c1cc2c(cc1CC(Cc1ccc3c(c1)CCC3)C(=O)OC)CCC2 (stereo not given) | 27 µM (inactive) | 17.6 µM (inactive) | 84.5 µM (inactive) | 60.7 µM (inactive) | 74 µM (inactive) | 34 µM (inactive) | > 100 µM (inactive) | 39.2 | 63.5 µM (inactive) | > 100 µM (inactive) | 24.8 µM (inactive) | > 100 µM (inactive) | 50.9 µM (inactive) | 40.6 µM (inactive) | > 100 µM (inactive) | 63.7 µM (inactive) | 34.5 µM (inactive) | 29.5 µM (inactive) | 45.7 µM (inactive) | 51.4 µM (inactive)
4 | Clc1ccc(C(SCc2ccccc2)SCc2ccccc2)cc1 | > 10 µM (inactive) | > 10 µM (inactive) | > 10 µM (inactive) |  | > 10 µM (inactive) | > 10 µM (inactive) | > 10 µM (inactive) | > 10 | > 10 µM (inactive) | > 10 µM (inactive) | > 10 µM (inactive) | > 10 µM (inactive) | > 10 µM (inactive) | > 10 µM (inactive) | > 10 µM (inactive) | > 10 µM (inactive) | > 10 µM (inactive) | > 10 µM (inactive) | > 10 µM (inactive) | > 10 µM (inactive)
5 | CC(NC(=O)C(C)NC(=O)C(N)CCP(C)(=O)O)C(=O)O (stereo not given) | > 100 µM (inactive) | > 100 µM (inactive) | > 100 µM (inactive) | > 100 µM (inactive) | > 100 µM (inactive) | > 100 µM (inactive) | > 100 µM (inactive) | > 100 | > 100 µM (inactive) | > 100 µM (inactive) | > 100 µM (inactive) | > 100 µM (inactive) | > 100 µM (inactive) | > 100 µM (inactive) | > 100 µM (inactive) | > 100 µM (inactive) | > 100 µM (inactive) | > 100 µM (inactive) |  | 
6 | OC(c1cc(C(F)(F)F)nc2c(Cl)cc(Cl)cc12)C1CCCCN1 (stereo not given) | > 100 µM (inactive) | 8.65 µM (inactive) | 12.2 µM (inactive) | > 35 µM (inactive) | 5.89 µM (inactive) | 20.5 µM (inactive) |  | 13 | 8.55 µM (inactive) | 13.2 µM (inactive) | 12.5 µM (inactive) | 6.4 µM (inactive) | 25.4 µM (inactive) | 2.93 µM (inactive) | 8.97 µM (inactive) | 0.906 µM (active) | > 100 µM (inactive) | 3.22 µM (inactive) | > 24.4 µM (inactive) | 13.3 µM (inactive)
7 | CC1(O)OC(=O)C2=C1CCC1C2CCC2(C)C(O)CCC12 (stereo not given) | > 100 µM (inactive) | > 100 µM (inactive) | > 100 µM (inactive) | > 100 µM (inactive) | > 100 µM (inactive) | > 100 µM (inactive) | > 100 µM (inactive) | > 100 | > 100 µM (inactive) | > 100 µM (inactive) | > 100 µM (inactive) | > 100 µM (inactive) | > 100 µM (inactive) | 25.6 µM (inactive) | > 100 µM (inactive) | > 100 µM (inactive) | > 100 µM (inactive) |  | > 100 µM (inactive) | > 100 µM (inactive)
8 | CCOC(=O)CCSS(=O)(=O)C(F)(F)F | > 100 µM (inactive) | > 100 µM (inactive) | > 100 µM (inactive) | > 100 µM (inactive) | > 100 µM (inactive) | > 100 µM (inactive) | > 100 µM (inactive) | > 100 | > 100 µM (inactive) | > 100 µM (inactive) | > 100 µM (inactive) | > 100 µM (inactive) | > 100 µM (inactive) | > 100 µM (inactive) | > 100 µM (inactive) | > 100 µM (inactive) | > 100 µM (inactive) | > 100 µM (inactive) | > 100 µM (inactive) | > 100 µM (inactive)
9 | CC(=O)O[C@@H]1[C@H]2[C@@H](OC(=O)c3ccccc3)[C@@H](C)C[C@]2(O)[C@H](OC(C)=O)[C@@]2(C)[C@@H]3C[C@@](C)(OC(C)=O)C[C@@H](OC(C)=O)[C@@]3(OC(C)=O)C[C@@]12C | > 10 µM (inactive) | > 10 µM (inactive) | > 10 µM (inactive) | > 10 µM (inactive) | > 10 µM (inactive) |  | > 10 µM (inactive) | > 10 | > 10 µM (inactive) | > 10 µM (inactive) | > 10 µM (inactive) | > 10 µM (inactive) | > 10 µM (inactive) | > 10 µM (inactive) | > 10 µM (inactive) | > 10 µM (inactive) | > 10 µM (inactive) | > 10 µM (inactive) | > 10 µM (inactive) | > 10 µM (inactive)
10 | Oc1ccc(-c2nc3cc(C(F)(F)F)ccc3s2)cc1 | 1.77 µM (inactive) | 14.9 µM (inactive) | 15 µM (inactive) | 17.2 µM (inactive) | 20.2 µM (inactive) | 15.4 µM (inactive) | 17.7 µM (inactive) | 10.1 | 15.9 µM (inactive) | 15.6 µM (inactive) | 10.2 µM (inactive) | 11.2 µM (inactive) | 16.1 µM (inactive) | 12.8 µM (inactive) | 15.7 µM (inactive) | 13.6 µM (inactive) |  | 18.8 µM (inactive) | 14.5 µM (inactive) | 
11 | COc1ccc(/C=C2\CCNC2=O)cc1 | > 29.4 µM (inactive) | > 100 µM (inactive) | > 100 µM (inactive) | > 100 µM (inactive) | > 100 µM (inactive) | > 100 µM (inactive) | > 100 µM (inactive) | > 100 | > 100 µM (inactive) | > 100 µM (inactive) | > 100 µM (inactive) | > 100 µM (inactive) | > 100 µM (inactive) | > 100 µM (inactive) | > 100 µM (inactive) | 75.2 µM (inactive) | > 48.5 µM (inactive) | > 100 µM (inactive) |  | 
12 | COc1ccccc1Cc1nc(-c2ccccc2)nn(C2OC(COC(C)=O)C(OC(C)=O)C(OC(C)=O)C2OC(C)=O)c1=S (stereo not given) | 25.1 µM (inactive) | 8.73 µM (inactive) | 8.15 µM (inactive) | > 100 µM (inactive) | > 72.8 µM (inactive) | 16.4 µM (inactive) | 9.35 µM (inactive) | 21.5 | 11.2 µM (inactive) | 5.64 µM (inactive) | 6.84 µM (inactive) | 31.1 µM (inactive) | 13.2 µM (inactive) | 11.2 µM (inactive) | 16.8 µM (inactive) | > 48.2 µM (inactive) | > 24.8 µM (inactive) | > 40.4 µM (inactive) |  | 
13 | CC(=O)OCC1OC(N2C(=O)NC(=O)C3C=C4CCCCC4=CC32)C(OC(C)=O)C1OC(C)=O (stereo not given) | > 100 µM (inactive) | > 100 µM (inactive) | > 100 µM (inactive) | > 100 µM (inactive) | > 100 µM (inactive) | > 100 µM (inactive) | > 100 µM (inactive) | > 100 | > 100 µM (inactive) |  | > 100 µM (inactive) | > 100 µM (inactive) | > 100 µM (inactive) | > 100 µM (inactive) | > 100 µM (inactive) | > 100 µM (inactive) | > 100 µM (inactive) | > 100 µM (inactive) | > 100 µM (inactive) | 
14 | O=c1c(-c2ccc(O)cc2)coc2cc(O)cc(O)c12 [GENISTEIN] | 63.1 µM (inactive) | > 100 µM (inactive) | 55 µM (inactive) | > 100 µM (inactive) | 49.2 µM (inactive) | 62.4 µM (inactive) | 52.5 µM (inactive) | 72.9 | > 100 µM (inactive) | > 100 µM (inactive) | > 100 µM (inactive) | 71.6 µM (inactive) | > 100 µM (inactive) |  |  | 24.9 µM (inactive) | > 100 µM (inactive) | > 100 µM (inactive) | 29.7 µM (inactive) | 43.2 µM (inactive)
15 | O=C(O)c1cnc2c(ccc3ncc(C(=O)O)c(O)c32)c1O | > 100 µM (inactive) | > 100 µM (inactive) | > 100 µM (inactive) | > 100 µM (inactive) | > 100 µM (inactive) | > 100 µM (inactive) | > 100 µM (inactive) | > 100 | > 100 µM (inactive) | > 100 µM (inactive) | > 100 µM (inactive) | > 100 µM (inactive) | > 100 µM (inactive) | > 100 µM (inactive) | > 100 µM (inactive) | > 100 µM (inactive) |  | > 100 µM (inactive) | > 100 µM (inactive) | > 100 µM (inactive)
